According to patent US10307413B2, “Tetrahydro- and dihydro-isoquinoline PRMT5 inhibitors and uses thereof” (Epizyme, Inc., priority 2013, dated 2019):
Like-named read-outs stand apart in the source and are kept apart here.

Key:
[1] = tested on: symmetric di-methyl arginine in Z-138 cells; assay: Z-138 Methylation Assay (In Cell Western for symmetric di-methyl arginine and DNA content); format: cell-based; details: Homo sapiens, read-out: ICW EC50
In short: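 In-cell western: symmetric di-methyl arginine signal ratioed to DRAQ5 DNA content after 96 h compound exposure of Z-138 cells seeded at 50,000 cells/mL.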

Z-138 cell line = assay: Z-138 Proliferation Assay (Cell Titer Glo, 5 days); format: cell-based; details: Homo sapiens, read-out: Proliferation EC50
In short: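 Viability via CellTiter-Glo luminescence (ATP) after 5-day incubation at 37 °C, 5% CO2. Compounds tested in triplicate, nine 3-fold steps, highest final concentration 20 μM in 0.2% DMSO; 50% inhibitory concentration by 4-parameter fit of normalized curves.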

PRMT5/MEP50 = PRMT5/MEP50 (Homo sapiens (Human), UniProt O14744); assay: PRMT5 Biochemical Assay (PRMT5/MEP50 enzyme assay on peptide substrate, 3H-SAM Flashplate)
Sequence of PRMT5/MEP50 (O14744 other isoform, or with tags, fused parts or gaps): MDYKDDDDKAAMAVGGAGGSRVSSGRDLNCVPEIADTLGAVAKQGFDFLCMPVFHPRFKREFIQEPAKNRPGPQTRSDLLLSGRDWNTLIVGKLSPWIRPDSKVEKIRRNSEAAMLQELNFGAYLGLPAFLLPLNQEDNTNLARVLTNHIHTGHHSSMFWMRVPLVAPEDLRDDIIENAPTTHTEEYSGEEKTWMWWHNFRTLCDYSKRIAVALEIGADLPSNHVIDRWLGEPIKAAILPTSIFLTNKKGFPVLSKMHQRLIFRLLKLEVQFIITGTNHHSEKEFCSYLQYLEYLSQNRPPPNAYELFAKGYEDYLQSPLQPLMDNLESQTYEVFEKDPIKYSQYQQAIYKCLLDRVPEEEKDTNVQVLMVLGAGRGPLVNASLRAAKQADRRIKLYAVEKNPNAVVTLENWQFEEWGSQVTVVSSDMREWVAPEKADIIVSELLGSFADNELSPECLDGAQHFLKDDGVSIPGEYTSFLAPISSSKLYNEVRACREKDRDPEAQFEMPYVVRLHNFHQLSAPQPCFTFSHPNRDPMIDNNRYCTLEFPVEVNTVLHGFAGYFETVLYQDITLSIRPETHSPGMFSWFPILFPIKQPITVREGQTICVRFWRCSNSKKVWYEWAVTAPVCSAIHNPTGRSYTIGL
Sequence of PRMT5/MEP50 (Q9BQA1 other isoform, or with tags, fused parts or gaps partner): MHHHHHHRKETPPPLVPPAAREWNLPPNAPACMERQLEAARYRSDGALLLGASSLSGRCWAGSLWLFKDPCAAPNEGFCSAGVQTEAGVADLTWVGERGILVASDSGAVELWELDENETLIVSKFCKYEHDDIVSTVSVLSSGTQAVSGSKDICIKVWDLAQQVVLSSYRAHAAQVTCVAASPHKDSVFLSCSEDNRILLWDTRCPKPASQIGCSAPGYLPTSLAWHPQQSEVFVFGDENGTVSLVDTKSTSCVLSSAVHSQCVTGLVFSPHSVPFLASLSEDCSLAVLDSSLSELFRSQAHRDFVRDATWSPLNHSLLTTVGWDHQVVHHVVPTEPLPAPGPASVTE
Description: S-adenosylmethionine (SAM), S-adenosylhomocysteine (SAH), bicine, KCl, Tween20, dimethylsulfoxide (DMSO), bovine skin gelatin (BSG), and Tris(2-carboxyethyl)phosphine hydrochloride solution (TCEP) were purchased from Sigma-Aldrich at the highest level of purity possible. ^3H-SAM was purchase from American Radiolabeled Chemicals with a specific activity of 80 Ci/mmol. 384-well streptavidin Flashplates were purchased from PerkinElmer.
Peptide representative of human histone H4 residues 1-15 was synthesized with a C-terminal linker-affinity tag motif and a C-terminal amide cap by 21st Century Biochemicals.
The amplified genes were sublconed into pENTR/D/TEV (Life Technologies) and subsequently transferred by Gateway™ attL×attR recombination to pDEST8 baculovirus expression vector (Life Technologies).
Protein over-expression was accomplished by infecting exponentially growing Spodoptera frugiperda (SF9) cell culture at 1.2×10^6 cell/ml with a 5000 fold dilution of BIIC stock. Infections were carried out at 27° C. for 72 hours, harvested by centrifugation, and stored at −80° C. for purification.
Flag-PRMT5/6His-MeP50 was eluted with 300 mM Imidazole in the same buffer.
General Procedure for PRMT5/MEP50 Enzyme Assays on Peptide Substrates.
The assays were all performed in a buffer consisting of 20 mM Bicine (pH=7.6), 1 mM TCEP, 0.005% BSG, and 0.002% Tween20, prepared on the day of use. […] DMSO (1 ul) was added to Columns 11, 12, 23, 24, rows A-H for the maximum signal control and 1 ul of SAH, a known product and inhibitor of PRMT5/MEP50, was added to columns 11, 12, 23, 24, rows I-P for the minimum signal control. A cocktail (40 ul) containing the PRMT5/MEP50 enzyme and the peptide was added by Multidrop Combi (Thermo-Fisher). The compounds were allowed to incubate with PRMT5/MEP50 for 30 min at 25 degrees Celsius, then a cocktail (10 ul) containing ^3H-SAM was added to initiate the reaction (final volume=51 ul). […] The assays were stopped by the addition of non-radioactive SAM (10 ul) to a final concentration of 600 uM, which dilutes the ^3H-SAM to a level where its incorporation into the peptide substrate is no longer detectable. 50 ul of the reaction in the 384-well polypropylene plate was then transferred to a 384-well Flashplate and the biotinylated peptides were allowed to bind to the streptavidin surface for at least 1 hour before being washed three times with 0.1% Tween20 in a Biotek ELx405 plate washer. The plates were then read in a PerkinElmer TopCount plate reader to measure the quantity of ^3H-labeled peptide bound to the Flashplate surface, measured as disintegrations per minute (dpm) or alternatively, referred to as counts per minute (cpm).
[formula] [formula] Where dpm=disintegrations per minute, cmpd=signal in assay well, and min and max are the respective minimum and maximum signal controls.
[formula] [formula] Where top and bottom are the normally allowed to float, but may be fixed at 100 or 0 respectively in a 3-parameter fit. The Hill Coefficient normally allowed to float but may also be fixed at 1 in a 3-parameter fit. Y is the % inhibition and X is the compound concentration.

[2] = 120 h, Z-138 cells, 5 days, Cell Titer Glo

**Q.** Which results are given for `CN(CCNCC(F)(F)F)c1cc(C(=O)NC[C@H](O)CN2CCc3ccccc3C2)ccn1` [Compound 359]?
**A.** EC50 [1]: 101 to 1000 nM; EC50 (Z-138 cell line; 120 h, Z-138 cells, 5 days): 1000 to 10000 nM; IC50 (PRMT5/MEP50): < 100 nM

**Q.** Which EC50 ([1]; In Cell Western methylation) does the source give for `CN1CCCCC1CNc1cc(C(=O)NC[C@H](O)CN2CCc3ccccc3C2)ccn1` (stereo partly drawn) [Compound 411] here?
**A.** < 100 nM

**Q.** What about the EC50 (Z-138 cell line; [2]) of the same compound?
**A.** 101 to 1000 nM

**Q.** What about the IC50 (PRMT5/MEP50; PRMT5 biochemical assay) of the same compound?
**A.** < 100 nM

**Q.** How did the EC50 ([1]; In Cell Western methylation) turn out when `COC(CNC(=O)c1cc(NC2CN(C(C)=O)C2)ncn1)CN1CCc2ccccc2C1` (stereo not drawn) [Compound 690] was run?
**A.** 101 to 1000 nM

**Q.** What about the EC50 (Z-138 cell line; [2]) of the same compound?
**A.** > 5000 nM

**Q.** What about the IC50 (PRMT5/MEP50; PRMT5 biochemical assay) of the same compound?
**A.** 101 to 1000 nM

**Q.** How did the EC50 ([1]; In Cell Western methylation) turn out when `CC(=O)N1CC(Nc2cc(C(=O)NC[C@H](O)CN3CCc4ccccc4C3)nc(N3CCCCC3)n2)C1` [Compound 441] was run?
**A.** < 100 nM

**Q.** And the EC50 (Z-138 cell line; [2])?
**A.** < 100 nM

**Q.** What about the IC50 (PRMT5/MEP50; PRMT5 biochemical assay) of the same compound?
**A.** < 100 nM

**Q.** Which EC50 ([1]; In Cell Western methylation) does the source give for `CSCCNc1cc(C(=O)NC[C@H](O)CN2CCc3ccccc3C2)ncn1` [Compound 554] here?
**A.** < 100 nM

**Q.** What about the EC50 (Z-138 cell line; [2]) of the same compound?
**A.** 101 to 1000 nM

**Q.** And the IC50 (PRMT5/MEP50; PRMT5 biochemical assay)?
**A.** < 100 nM

**Q.** `Cc1cnc(OC2CCOCC2)cc1C(=O)NC[C@H](O)CN1CCc2ccccc2C1` [Compound 309] was tested. Which EC50 [1] did it give?
**A.** < 100 nM

**Q.** And the EC50 (Z-138 cell line; 120 h, Z-138 cells, 5 days)?
**A.** 1000 to 10000 nM

**Q.** What about the IC50 (PRMT5/MEP50) of the same compound?
**A.** < 100 nM

**Q.** `O=C(NC[C@H](O)CN1CCc2ccccc2C1)c1cn2nc(Cl)ccc2n1` [Compound 404] was tested. Which EC50 ([1]; In Cell Western methylation) did it give?
**A.** 101 to 1000 nM

**Q.** What about the EC50 (Z-138 cell line; [2]) of the same compound?
**A.** 10000 to 50000 nM

**Q.** What about the IC50 (PRMT5/MEP50; PRMT5 biochemical assay) of the same compound?
**A.** < 100 nM

**Q.** Which EC50 [1] does the source give for `CC(C)N1CCN(c2cc(C(=O)NC[C@H](O)CN3CCc4ccccc4C3)cc(NC3CCC3)n2)CC1` [Compound 397] here?
**A.** < 100 nM

**Q.** What about the EC50 (Z-138 cell line; 120 h, Z-138 cells, 5 days) of the same compound?
**A.** < 100 nM

**Q.** What about the IC50 (PRMT5/MEP50) of the same compound?
**A.** < 100 nM

**Q.** With `O=C(NC[C@H](O)CN1CCc2ccccc2C1)c1cc(NC2COC2)ccn1` [Compound 435] as the compound, how does the EC50 ([1]; In Cell Western methylation) read?
**A.** < 100 nM

**Q.** And the EC50 (Z-138 cell line; [2])?
**A.** 101 to 1000 nM

**Q.** And the IC50 (PRMT5/MEP50; PRMT5 biochemical assay)?
**A.** < 100 nM

**Q.** For `O=C(NC[C@H](O)CN1CCc2ccccc2C1)c1cc(NC2CNC2)nc(N2CCNCC2)n1` [Compound 453], which EC50 ([1]; In Cell Western methylation) is on record?
**A.** > 1000 nM

**Q.** What about the EC50 (Z-138 cell line; [2]) of the same compound?
**A.** > 20000 nM

**Q.** And the IC50 (PRMT5/MEP50; PRMT5 biochemical assay)?
**A.** < 100 nM

**Q.** For `Cc1cnc(NC2CCN(CC(F)(F)F)C2)cc1C(=O)NC[C@H](O)CN1CCc2ccccc2C1` (stereo partly drawn) [Compound 402], which EC50 ([1]; In Cell Western methylation) is on record?
**A.** < 100 nM

**Q.** And the EC50 (Z-138 cell line; [2])?
**A.** 1000 to 10000 nM

**Q.** And the IC50 (PRMT5/MEP50; PRMT5 biochemical assay)?
**A.** < 100 nM

**Q.** Which results are given for `O=C(NC[C@H](O)CN1CCc2ccccc2C1)c1cc(NC2CNC2)nc(C(F)(F)F)n1` [Compound 456]?
**A.** EC50 ([1]; In Cell Western methylation): 101 to 1000 nM; EC50 (Z-138 cell line; [2]): 101 to 1000 nM; IC50 (PRMT5/MEP50; PRMT5 biochemical assay): < 100 nM

**Q.** With `CC(C)N(C)CCOc1ccc(C(=O)NC[C@H](O)CN2CCc3ccccc3C2)cc1` [Compound 389] as the compound, how does the EC50 [1] read?
**A.** < 100 nM

**Q.** And the EC50 (Z-138 cell line; 120 h, Z-138 cells, 5 days)?
**A.** 1000 to 10000 nM

**Q.** What about the IC50 (PRMT5/MEP50) of the same compound?
**A.** < 100 nM

**Q.** Which results are given for `NC(=O)[C@H]1CC[C@@H](Nc2cc(C(=O)NC[C@H](O)CN3CCc4ccccc4C3)ncn2)CC1` [Compound 596]?
**A.** EC50 ([1]; In Cell Western methylation): < 100 nM; EC50 (Z-138 cell line; [2]): 1000 to 10000 nM; IC50 (PRMT5/MEP50; PRMT5 biochemical assay): < 100 nM

**Q.** For `Cc1cc(Nc2cc(C(=O)NC[C@H](O)CN3CCc4ccccc4C3)ncn2)n[nH]1` [Compound 432], which EC50 ([1]; In Cell Western methylation) is on record?
**A.** < 100 nM

**Q.** And the EC50 (Z-138 cell line; [2])?
**A.** 1000 to 10000 nM

**Q.** What about the IC50 (PRMT5/MEP50; PRMT5 biochemical assay) of the same compound?
**A.** < 100 nM

**Q.** Which results are given for `O=C(NC[C@H](O)CN1CCc2ccccc2C1)c1cc(NC2CCN(C(=O)C3CC3)CC2)ccn1` [Compound 638]?
**A.** EC50 ([1]; In Cell Western methylation): < 100 nM; EC50 (Z-138 cell line; [2]): < 100 nM; IC50 (PRMT5/MEP50; PRMT5 biochemical assay): < 100 nM

**Q.** With `CC(=O)N1CCC(Nc2cc(C(=O)NCC(F)CN3CCc4ccccc4C3)ccn2)CC1` (stereo not drawn) [Compound 698] as the compound, how does the EC50 ([1]; In Cell Western methylation) read?
**A.** < 100 nM

**Q.** What about the EC50 (Z-138 cell line; Z-138, 120 h) of the same compound?
**A.** 1000 to 10000 nM

**Q.** What about the IC50 (PRMT5/MEP50; PRMT5 biochemical assay) of the same compound?
**A.** < 100 nM

**Q.** What does the source list for `NCCOc1ccc2cc(C(=O)NC[C@H](O)CN3CCc4ccccc4C3)ccc2c1` [Compound 360]?
**A.** EC50 [1]: < 100 nM; EC50 (Z-138 cell line; 120 h, Z-138 cells, 5 days): 1000 to 10000 nM; IC50 (PRMT5/MEP50): 101 to 1000 nM

**Q.** For `O=C(NC[C@H](O)CN1CCc2ccccc2C1)c1ccnc(Nc2ccccn2)c1` [Compound 382], which EC50 [1] is on record?
**A.** < 100 nM

**Q.** And the EC50 (Z-138 cell line; 120 h, Z-138 cells, 5 days)?
**A.** 101 to 1000 nM

**Q.** And the IC50 (PRMT5/MEP50)?
**A.** < 100 nM

**Q.** With `CCNCCCOc1ccc(C(=O)NC[C@H](O)CN2CCc3ccccc3C2)cc1` [Compound 396] as the compound, how does the EC50 [1] read?
**A.** < 100 nM

**Q.** And the EC50 (Z-138 cell line; 120 h, Z-138 cells, 5 days)?
**A.** 1000 to 10000 nM

**Q.** And the IC50 (PRMT5/MEP50)?
**A.** < 100 nM
